In publication PMC8287724, “Reducing Auditory Nerve Excitability by Acute Antagonism of Ca^2+-Permeable AMPA Receptors” (Frontiers in Synaptic Neuroscience, 2021):
“And” between values parts separate entries of the source, which are not always exact repeats. Equal entries are not always repeated. Where two headings read alike, the source gives them in different places.

Experiments:
M1 acetylcholine GPCR = target: T1, M1 acetylcholine GPCR (Homo sapiens, UniProt P11229); assay: Radioligand binding assay, M1 receptor (transfected CHO cells); conditions: antagonist 1 μM
T1 construct: host or cells: CHO cells
T1 sequence (P11229 whole entry): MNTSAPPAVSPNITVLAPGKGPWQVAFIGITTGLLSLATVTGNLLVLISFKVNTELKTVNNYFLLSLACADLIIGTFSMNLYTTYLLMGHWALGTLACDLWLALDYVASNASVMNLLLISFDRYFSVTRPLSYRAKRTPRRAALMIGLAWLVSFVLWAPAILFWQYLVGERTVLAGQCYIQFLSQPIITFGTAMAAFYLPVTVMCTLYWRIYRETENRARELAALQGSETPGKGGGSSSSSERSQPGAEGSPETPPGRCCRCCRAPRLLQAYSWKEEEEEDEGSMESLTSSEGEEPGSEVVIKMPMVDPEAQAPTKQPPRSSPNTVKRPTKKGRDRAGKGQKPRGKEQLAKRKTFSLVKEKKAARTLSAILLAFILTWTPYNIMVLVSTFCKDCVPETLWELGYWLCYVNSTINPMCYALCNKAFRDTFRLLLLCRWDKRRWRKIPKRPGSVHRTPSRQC
Description: Binding assays were conducted to evaluate the affinity of test compounds IEM-1460 and IEM-1925 (Eurofins Scientific, Inc.) for 15 targets: the human alpha-1 adrenergic (A1) receptor, histaminergic (H)-2 and−3 receptors, and muscarinic acetylcholine receptors-1 to−5 in transfected CHO cells by radioligand binding. The neuronal α4β2 and neuronal α7 cholinergic acetylcholine receptors were tested in transfected SH-SY5Y cells. The histaminergic-1 and−4 receptors were tested in transfected HEK-293 cells. Ion channel testing for AMPA and N-methyl-D-aspartate (NMDA) was performed in cells from the rat cerebral cortex. […] Non-specific binding was determined in the presence of 1 μM of DCPX. […] The filters were dried and then counted for radioactivity in a scintillation counter (Topcount, Packard) using a scintillation cocktail (Microscint 0, Packard). The results are expressed as a percent inhibition of the control radioligand specific binding: 100-[(measured specific binding)/(control specific binding) × 100]. […]
We tested the metabolic stability of the compounds with in vitro liver microsome stability assays (Table 1, right). […] We evaluated the compounds for potential toxicity with assays that test for inhibition of off-target ion channels and receptors. […]

[1] = Drug levels in blood, perilymph and CSF after IP injection (LC/MS); format: in vivo, guinea pig; conditions: for half-life / Kp: NIH-strain, pigmented, guinea pig; for half-life: blood, in vivo, IP injection: IEM-1460 13.5 mg/kg, IEM-1925 8 mg/kg, estimated from PK data, read-out: elimination half-life in blood; for Kp: ip
Description: After at least 30 min of baseline data, 1 mL of Lactated Ringer's was injected into the peritoneal space of the guinea pig as a vehicle control. Then, 13.5 mg/kg IEM-1460 or 8 mg/kg IEM-1925 in Lactated Ringer's was injected into the peritoneal space of the guinea pig. The entire experiment took ~3 h to complete: 1 h for anesthetic induction and surgery, 30 min for sound calibration and CAP threshold measurements, and 2 h for drug delivery, DPOAE and CAP measurements. After collection of perilymph and CSF, the animal was euthanized via saturated KCl delivered directly into the jugular vein.
General surgical scissors were used to clip the toenail at a 45° angle to collect blood with a premarked glass capillary tube during the baseline period and after drug injection. The exact volume was determined by measurement of the fluid meniscus in a calibrated capillary tube. […] Complete details used to perform apical fluid sampling are presented elsewhere and are only briefly provided here (Mynatt et al., [2006]). Similar to the apical cochlear fenestration used to deliver drugs (described above), the mucosa on the cochlea was cleared from two apical turns using a small cotton swab, and the bone at the apex was allowed to dry. A droplet of thin cyanoacrylate adhesive was applied and cup formed over the apex with silicone adhesive. A small perforation (50–100 μm diameter) was then made in the bone over scala vestibuli at the apex using a 30° pick. Upon perforation, fluid immediately started emerging, driven by intralabyrinthine pressure from CSF, and formed a bead within the hydrophobic silicone cup. A calibrated 5 μL capillary micropipette (VWR #5342-706, S. Plainfield, NJ) was held by hand in contact with the fluid at the apex, so that fluid was drawn into the capillary in ~30 s. The exact volume was determined by measurement of the fluid meniscus. Perilymph from the opposite ear was sampled prior to euthanizing the animal, then ~2 μL of CSF was aspirated by inserting a micropipette through the dura mater into the cisterna magna. After the fluid meniscus from the capillary tube was measured, the capillary tube was then flushed with 25.0 μL 50:50 methanol-water solvent to ensure that all the sample was collected.
The concentration of IEM-1460 in perilymph, blood, and CSF was analyzed using LC-MS (Confluence Life Sciences, St. Louis, MO). LC-MS-grade acetonitrile, LC-grade methanol, formic acid, sodium hydroxide 0.1 M, perfluoroheptanoic acid, formic acid, and hydrochloric acid were purchased from Sigma-Aldrich (USA). Deionized water (R > 18 MΩ/cm, TOC <10 ppb) was used throughout all these experiments. IEM-1460 and IEM-1925 were purchased from Tocris Bioscience (Bristol, UK). A 10 mM stock solution was made for both IEM-1460 and IEM-1925 in 50% aqueous methanol. For calibration of the specific compound concentration in the tested matrix (i.e., plasma or CSF/perilymph), a set of standard solutions were prepared by diluting concentrated stock solutions with 50% aqueous methanol into guinea pig plasma matrix or artificial perilymph (in mM: 127.5 NaCl, 3.5 KCl, 25 NaHCO3, 1.3 CaCl2, 1.2 MgCl2, 0.75 NaH2PO4, and 11 glucose) to have a set of standards from 1 to 300 ng/mL. […] Calibration standard samples using verapamil were prepared for each batch of samples ranging from 1 to 300 ng/mL and injected at both the beginning and end of the sample sequence. The methodology for LC-MS for blood has previously been described (Da Silva et al., [2016]; Guiraud et al., [2017]). Separation and analysis were performed on a LC instrument (Exion LC AD, AB SCIEX, USA) coupled to a Sciex QTRAP5500 with TurboV Ion Source (SCIEX, Concord, ON, Canada) equipped with a heated electrospray ionization (H-ESI) source. Chromatographic separation was obtained using a gradient elution on a reversed-phase Kinetex F5 (Phenomenex, Aschaffenburg, Germany) column (2.1 × 50 mm), packed with 1.7 μm diameter particles. […]

Row | SMILES | Mean% inhibition (N = 2) of radioligand binding (M1 acetylcholine GPCR) [%] | LC/MS detection in perilymph or CSF ([1]; IP 8 mg/kg) | levels detected in blood ([1]; IP 8 mg/kg) | half-life [1] [h] | time to plateau of blood plasma concentration ([1]; IP 13.5 mg/kg) [min] | concentration in blood plasma at plateau ([1]; IP 13.5 mg/kg, average, N = 3) | concentration in blood ([1]; IP 13.5 mg/kg, converted from 7 μg/mL) [µM] | perilymph level as % of blood level ([1]; IP 13.5 mg/kg, ~2 h after injection, N = 3, 13.5 mg/kg) | concentration in perilymph ([1]; IP 13.5 mg/kg, ~2 h after injection, from blood level and perilymph/blood ratio, 13.5 mg/kg) | Kp ([1]; CSF relative to blood, 13.5 mg/kg, IP 13.5 mg/kg, ~2 h after injection, N = 3, read-out: CSF level as % of blood level) | Kp ([1]; perilymph relative to blood, 13.5 mg/kg, IP 13.5 mg/kg, ~2 h after injection, N = 3, read-out: perilymph level as % of blood level)
1 | NCCCCCNC1(c2ccccc2)CCCCC1 [IEM-1925] | <1 | did not detect significant | Very low levels | 1.13 |  |  |  |  |  |  | 
2 | C[N+](C)(C)CCCCCNCC12CC3CC(CC(C3)C1)C2 [IEM-1460] | <1 |  |  | 1.97 | ≤ 30 | ~ 7 μg/mL | 23.8 | 17–45% | 4–11 μM and ~ 7 μM | 0.08 to 0.23 | ~0.3
